BigSolDB 2.1

COc1cc(/C=C/C(=O)O)cc(OC)c1OC
solubility (mole fraction)
Conditions | 278.15 K | 283.15 K | 288.15 K | 293.15 K | 298.15 K | 303.15 K | 308.15 K | 313.15 K | 318.15 K | 323.15 K
in acetone | 0.0175 | 0.0201 | 0.0232 | 0.0265 | 0.0301 | 0.0343 | 0.0391 | 0.044 | 0.0492 | 0.0551
in ethanol | 0.00626 | 0.0085 | 0.0114 | 0.0153 | 0.0201 | 0.0261 | 0.0341 | 0.044 | 0.057 | 0.0725
in isopropanol | 0.00465 | 0.0063 | 0.00867 | 0.0121 | 0.0163 | 0.0215 | 0.0289 | 0.039 | 0.0511 | 0.0665
in methanol | 0.00662 | 0.00922 | 0.0127 | 0.0175 | 0.0236 | 0.0315 | 0.0417 | 0.0548 | 0.0717 | 0.0943
in water | 4.67e-05 | 5.3e-05 | 6.05e-05 | 6.8e-05 | 7.61e-05 | 8.55e-05 | 9.58e-05 | 0.000107 | 0.000118 | 0.000131
